The source of these data is patent US12428445B2, “Mini-nucleosome core proteins and use in nucleic acid delivery” (priority 2018, dated 2025).

One series has as its system retina and RPE cells. Kind of series: Intraocular (intravitreal) delivery, native GFP fluorescence in retinal sections and RPE whole mounts. The class given is in vivo. The following applies: 1.5 micrograms, Balb/c mice. As for the experimental part: In the present Example, Balb/c mice were anesthetized by IP injection with Ketamine/Xylazine (90-100 mg/kg+10 mg/kg) and positioned underneath a microscope. Mice eyes were dilated with topical Tropicamide (1%) and 1 ul of loaded mini-nucleosomes (total dose 1.5 micrograms in mice) were injected into the vitreous cavity using 32 gauze blunt needle passing through the incision made by a 25-gauze needle below the limbus. At various time points, mice were perfused with 10 ml of 1×PBS, and then sacrificed using standard techniques. Mice were enucleated and eyecups were collected and incubated in 4% paraformaldehyde overnight. The eyecups were washed with 1×PBS, then immersed in 15% sucrose for few hours and then in 30% sucrose solution overnight for cryopreservation. The eyecups were then placed in a plastic vial and frozen using OCT compound for cryo-sectioning. 10-micron thick tissue sections were obtained for staining. The retinal sections were mounted with mounting media with or without DAPI, coverslip and sealed. Images were acquired by Leica SP5. For whole mount imaging, eyecups were fixed in 4% paraformaldehyde overnight. Eyecups were washed in 1×PBS, retina was removed and the remaining eyecup or RPE wholemount was processed for staining. The RPE tissue was whole mounted with mounting media, coverslip and sealed. Images were acquired by Leica SP5.
To target the RPE cells, the present Example utilized a mini-nucleosome core protein (SEQ ID NO: 392) that could bind to the phagocytic proteins like MERTK. RPE are phagocytic cells, that extend their microvilli to the photoreceptor inner/outer segment junction. MERTK is expressed in those microvilli. In SEQ ID NO: 392, we incorporated the “eat me” signals as descried in Table 8. In literature, “eat me” signals are described as domains exposed in cellular debris that are primed for phagocytosis (Wei Li, Journal of Cell physiology, 2016, which is incorporated herein by reference). To the present inventor's knowledge, these “eat me” signals have never been utilized in the context of non-viral vectors before. […]

Series [1] is described as follows: Transmission Electron Microscopy (TEM) of loaded mini-nucleosomes (shape). It counts as physicochemical. Particulars: Luciferase plasmid (SEQ ID NO: 396) condensed with core protein; final formulation in sterile, endotoxin free water. An excerpt: Provided in this Example are techniques to produce loaded mini-nucleosomes in various formulations, including formulations useful for administration to cells and to mammalian subjects, e.g., humans. Loaded mini-nucleosomes can be formulated to different shape and/or sizes parameters based on the mini-nucleosome core protein amino acid sequence and the buffer conditions in which the synthesis occurs. Loaded mini-nucleosomes can be formulated in different conditions, e.g., with solubility suitable for therapeutic use. Solubility of loaded mini-nucleosomes in water and/or normal saline is one means to allow non-toxic formulation of compositions for administration to patients, and to ease of delivery into patients. To form loaded mini-nucleosomes represented in FIG. 7, core proteins were synthesized by solid phase synthesis using trifluoroacetate buffers. 200 micrograms of DNA (SEQ ID NO: 396) were added to 1 milligram of lyophilized core proteins and vortexed together, and purified to produce loaded mini-nucleosomes (FIG. 7). Buffer exchange was performed and final formulation of mini-nucleosome was made in sterile, endotoxin free water. 1 microgram of each kind of mini-nucleosomes was diluted in water and then placed on grids that were stained with freshly prepared in 0.75% uranyl acetate in methanol solution for two minutes. […]

Another series deals with muscle cells. The series can be described thus: Intramuscular delivery, GFP fluorescence and dystrophin immunolabeling in leg muscle sections. It counts as in vivo. The following applies: 17.5 ug per leg, Balb/c mice, 3-months post injection. The method, then: Balb/c mice were anesthetized by IP injection with Ketamine/Xylazine (90-100 mg/kg+10 mg/kg) and several loaded mini-nucleosomes were injected into both leg muscle at 17.5 ug doses per leg using an insulin syringe (Total dose 35 micrograms per mice). Mice were sacrificed at various time points and leg muscle were obtained for tissue sections. […] One skilled in the art may contemplate combining such domains with other domains known for muscle tropism.
To validate muscle specificity of expression of genes encoded by the nucleic acid cargo, we utilized dystrophin immunolabeling as an endogenous secondary marker. […] Native fluorescence of GFP was obtained in the 486-nm channel of Leica SP5 scope. Dystrophin in red is the RFP channel (555-nm). Untransduced muscle cells in figure also serve as internal control for differentiation between GFP signal and autofluorescence.

Where no end group is shown, it is not given here. [ ]: non-standard residue; d: D form. LINKER = not defined here

“SEQ ID NO:388 (KKRHRKLREKRHRKLRRRRRLKRHRKKRHRKLREK; not fully specified)”: in the series with retina and RPE cells, the “GFP expression / transduction in retina and RPE” value (“GFP expression / transduction” for short) was “transduction into ganglion cells, bipolar cells and photoreceptors”.
Consider “KKKRHRKKKKK-[LINKER]-RGD-[LINKER]-KKKK-[LINKER]-NTQIH-[LINKER]-RRRRR-[LINKER]-TPH-[LINKER]-KK (KKKRHRKKKKK[LINKER]RGD[LINKER]KKKK[LINKER]NTQIH[LINKER]RRRRR[LINKER]TPH[LINKER]KK; reading uncertain; also: linker structure not given here) [SEQ ID NO: 391]”, for which the “Shape of loaded mini-nucleosome (TEM)” value in series [1] is “mixture of circular and rod like molecules”. Besides, the “GFP fluorescence in muscle tissue sections at 3 months” value (from here on “GFP fluorescence”) in the series on muscle cells is recorded as “sharp green fluorescence in skeletal muscle cells”.
For the substance “SEQ ID NO. 392 (KKKRKKTKKKAKKALKKKKKGKKKKRRRRKAAPKK; not fully specified)”, the “GFP expression / transduction” value in the series on retina and RPE cells was “enhanced uptake into the RPE”.
Turning to “CKKKKKKKKKKKKKKKKKKKKKKKKKKKKKK [SEQ ID NO: 393, reference compound]”, the “Shape of loaded mini-nucleosome (TEM)” value in series [1] is “spiral/helical-shaped”. For the same substance, the “GFP fluorescence” value in the series with muscle cells is listed as “didn't exhibit GFP fluorescence”.
“KKKRHRKRKRKRKRRRRKKK-[LINKER]-ASSLNIAK-[LINKER]-RRRR (KKKRHRKRKRKRKRRRRKKK[LINKER]ASSLNIAK[LINKER]RRRR; reading uncertain; also: linker structure not given here) [SEQ ID NO: 389]”: the “GFP fluorescence” value in the series with muscle cells is on record as “didn't exhibit GFP fluorescence”.
Turning to “SEQ ID NO. 388 (KKRHRKLREKRHRKLRRRRRLKRHRKKRHRKLREK; not fully specified)”, the “GFP expression / transduction” value in the series on retina and RPE cells is “express GFP to target neuronal cells in the retina”.
